Measured values from patent publication US11912679B2, “Aryl alkynamide derivatives” (Astellas Pharma, Inc., priority 2022, dated 2024).

What was measured:
IRF pathway of THP-1 = test: Test on the activity of IRF pathway of THP-1 (THP1-Dual reporter cells stimulated with 2'3'-cGAMP); assay type: cell-based; conditions: Homo sapiens, PMA-treated, 2'3'-cGAMP 5 ug/mL, QUANTI-Luc readout, read-out: IC50 of inhibition of the activity of IRF pathway
Method: 0.3 uM of PMA (phorbol myristate acetate, SIGMA, P1585) was added to THP1-Dual™ cells (NF-κB-SEAP IRF-Luc Reporter Monocytes, Invivogen, thpd-nfis), and the cells were cultured at 37° C. for 1 day in RPMI1640 with 10% Fetal Bovine Serum (FBS). A compound with a known concentration was added, and the cells were incubated at room temperature for 1 hour. Mammalian (non-canonical) CDN, cyclic [G(2′,5′)pA(3′,5′)p] (2′3′-cGAMP, Invivogen, tlrl-nacga23) was added to a final concentration of 5 ug/mL, and the cells were cultured at 37° C. On the following day, QUANTI-Luc™ (Secreted luciferase detection medium, Invivogen, rep-qlc) was added to the culture solution and the activity of IRF pathway was measured using a microplate reader. The inhibition ratio at each concentration was determined, where the activity of IRF pathway with no addition of the test compound or 2′3′-cGAMP was defined as 100% inhibition and the activity of IRF pathway with no addition of the test compound and with addition of 2′3′-cGAMP was defined as 0% inhibition. The IC50 value was calculated by sigmoid […] model non-linear regression analysis.

IFNβ production = test: Test on IFNβ production in mice plasma (DMXAA-induced); assay type: in vivo; conditions: male C57BL/6J mice, 1 mg/kg oral, DMXAA 20 mg/kg i.p. after 1 hour, plasma 4 hours later
Method: Male C57BL/6J mice (8-12-weeks-old) were administered orally either vehicle or 1 mg/kg of test compounds. After 1 hour, 5,6-Dimethylxanthenone-4-acetic acid (DMXAA) (BLD Pharmatech Ltd, BD126695) was administered intraperitoneally at a dose of 20 mg/kg. Four hours later, the mice were euthanized, and the plasma was collected. Plasma concentration of IFNβ was measured by an enzyme-linked immunosorbent assay method using an AlphaLISA Mouse IFNβ Detection Kit (Parkin Elmer, AL586C), and the inhibition ratio to the vehicle administration group was calculated.

saliva production = test: Test on drug-induced Sjogren's syndrome-like salivary dysfunction in mice; assay type: in vivo; conditions: female C57BL/6J mice, DMXAA 20 mg/kg s.c. four times weekly, test compound oral once a day for 8 days
Method: Female C57BL/6J mice (8-10-weeks-old) were injected subcutaneously with 20 mg/kg of DMXAA or its vehicle, 5% NaHCO3, four times at weekly intervals. From the day after the last DMXAA challenge, mice were orally administered the test compound or its vehicle once a day for 8 days. On the following day, saliva was collected from mice using a cotton swab under awake conditions, and saliva weight during 15 min was measured and evaluated as an indicator of salivary gland function.

SMILES	IC50 (IRF pathway of THP-1)	Inh (%): inhibition ratio of the production of IFNβ to the vehicle administration group (IFNβ production)	saliva production (saliva weight during 15 min) (saliva production)
N=S1(=O)CCN(C(=O)C#Cc2ccc(-c3ccccc3)c(C(F)(F)F)c2)CC1 [Example 99, 1-imino-4-{3-[2-(trifluoromethyl)[1,1′-biphenyl]-4-yl]prop-2-ynoyl}-1λ^6-thiomorpholin-1-one]	102 nM	68%	significantly improved saliva production
O=C(C#Cc1ccc(-c2ccccc2)c(C(F)(F)F)c1)N1CC(CO)(CO)C1 [Example 46, 1-[3,3-bis(hydroxymethyl)azetidin-1-yl]-3-[2-(trifluoromethyl)[1,1′-biphenyl]-4-yl]prop-2-yn-1-one]	150 nM	69%	–
O=C(C#Cc1ccc(-c2ccccc2)c(C(F)(F)F)c1)N1C[C@@H](O)[C@@H](O)C1 [Example 33, 1-[(3R,4S)-3,4-dihydroxypyrrolidin-1-yl]-3-[2-(trifluoromethyl)[1,1′-biphenyl]-4-yl]prop-2-yn-1-one]	136 nM	92%	significantly improved saliva production
NC(=O)C1CCN(C(=O)C#Cc2ccc(-c3ccccc3)c(C(F)(F)F)c2)CC1 [Example 34, 1-{3-[2-(trifluoromethyl)[1,1′-biphenyl]-4-yl]prop-2-ynoyl}piperidine-4-carboxamide]	230 nM	90%	significantly improved saliva production
O=C(C#Cc1ccc(-c2ccccc2)c(C(F)(F)F)c1)N1C[C@H](O)[C@@H](O)C1 [Example 44, 1-[(3S,4S)-3,4-dihydroxypyrrolidin-1-yl]-3-[2-(trifluoromethyl)[1,1′-biphenyl]-4-yl]prop-2-yn-1-one]	174 nM	82%	–
O=C(C#Cc1ccc(-c2ccccc2)c(C(F)(F)F)c1)N1C[C@@H](O)[C@H](O)C1 [Example 43, 1-[(3R,4R)-3,4-dihydroxypyrrolidin-1-yl]-3-[2-(trifluoromethyl)[1,1′-biphenyl]-4-yl]prop-2-yn-1-one]	201 nM	87%	–
O=C(C#Cc1ccc(-c2ccccc2)c(C(F)(F)F)c1)NC[C@H](O)CO [Example 35, N-[(2S)-2,3-dihydroxypropyl]-3-[2-(trifluoromethyl)[1,1′-biphenyl]-4-yl]prop-2-ynamide]	466 nM	83%	–
O=C(C#Cc1ccc(-c2ccccc2)c(C(F)(F)F)c1)NC[C@@H](O)CO [Example 36, N-[(2R)-2,3-dihydroxypropyl]-3-[2-(trifluoromethyl)[1,1′-biphenyl]-4-yl]prop-2-ynamide]	615 nM	85%	–
O=C(C#Cc1ccc(-c2ccccc2OC(F)(F)F)c(C(F)(F)F)c1)N1C[C@@H](O)[C@H](O)C1 [Example 66]	48 nM	–	–
CN1CCN(C(=O)C#Cc2cn(-c3ccccc3)nc2C(F)(F)F)CC1 [Example 7]	2060 nM	–	–
O=C(C#Cc1ccc(-c2ccc(OC(F)F)cc2)c(C(F)(F)F)c1)N[C@H]1COC[C@@H]1O [Example 62]	594 nM	–	–
